Experimental data as given in patent publication US11976083B2, “Inhibitors of peptidylarginine deiminases” (Gilead Sciences, Inc., priority 2020, dated 2024).

Target: T1, human PAD4 (Homo sapiens, UniProt Q9UM07)
T1 construct: human PAD4 (NM_012387), A2-P663, was PCR amplified; His-SUMO (N, cleaved yes); made in house; host or cells: E. coli BL21(DE3)
Test: In vitro PAD4 BAEE biochemical assay
Conditions: BAEE substrate 3 mM, 5 nM PAD4, 2 mM calcium chloride; geometric mean of multiple experiments
Outline: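 Recombinant PAD4 (5 nM final) with 2 mM CaCl2 was preincubated with compound for 30 min at 25 °C in MOPS pH 7.6 buffer with DTT, then reacted with 3 mM BAEE for 2 h at 25 °C. Released ammonia was detected fluorimetrically with o-phthalaldehyde/DTT; IC50 from four-parameter fit, geometric mean of experiments.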

T1 sequence (Q9UM07 2-663): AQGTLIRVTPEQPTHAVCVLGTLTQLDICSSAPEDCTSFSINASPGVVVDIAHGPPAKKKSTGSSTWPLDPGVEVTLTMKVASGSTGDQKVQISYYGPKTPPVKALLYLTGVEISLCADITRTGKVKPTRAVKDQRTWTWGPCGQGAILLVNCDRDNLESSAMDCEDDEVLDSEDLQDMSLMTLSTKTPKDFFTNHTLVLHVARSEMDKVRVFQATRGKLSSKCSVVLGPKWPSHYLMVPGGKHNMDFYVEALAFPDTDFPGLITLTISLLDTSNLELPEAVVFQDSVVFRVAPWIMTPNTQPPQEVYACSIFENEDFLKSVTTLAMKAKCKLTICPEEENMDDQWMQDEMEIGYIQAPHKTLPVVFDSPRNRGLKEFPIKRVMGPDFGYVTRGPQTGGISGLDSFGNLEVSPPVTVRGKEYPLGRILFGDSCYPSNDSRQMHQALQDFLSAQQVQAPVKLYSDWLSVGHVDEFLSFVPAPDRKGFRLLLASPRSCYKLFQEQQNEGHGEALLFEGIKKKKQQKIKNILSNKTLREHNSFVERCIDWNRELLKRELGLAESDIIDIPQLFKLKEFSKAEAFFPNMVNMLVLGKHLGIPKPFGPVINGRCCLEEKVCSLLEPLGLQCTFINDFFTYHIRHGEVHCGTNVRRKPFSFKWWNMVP

Row | Compound | IC50
1 | C[C@H]1NC(=O)[C@@](F)(c2cccc(Cl)n2)CCCCCCn2c(-c3nc4cc(C(=O)N5C[C@H](N)[C@@H]6CC[C@H]5C6)cc(F)c4n3C3CC3)cc3ccc1nc32 [Example 480, (8~{S},11~{R})-17-[5-[(1~{S},4~{R},5~{R})-4-amino-2-azabicyclo[3.2.1]octane-2-carbonyl]-1-cyclopropyl-7-fluoro-benzimidazol-2-yl]-8-(6-chloro-2-pyridyl)-8-fluoro-11-methyl-1,10,19-triazatricyclo[10.5.2.0^{15,18}]nonadeca-12(19),13,15(18),16-tetraen-9-one] | 134 nM
2 | COc1cc(C(=O)N2CCC[C@@H](N)C2)cc2nc(-c3cc4ccc5cc4n3CCCCCCC(C)(C)C(=O)Nc3ccccc3-5)n(C)c12 [Example 54, 18-[5-[(3~{R})-3-aminopiperidine-1-carbonyl]-7-methoxy-1-methyl-benzimidazol-2-yl]-10,10-dimethyl-8,17-diazatetracyclo[15.5.2.0^{2,7).0^{20,24}] tetracosa-1(23),2,4,6,18,20(24),21-heptaen-9-one] | 1380 nM
3 | C[C@H]1NC(=O)[C@@]2(C)C[C@@H]2C/C=C/C(F)(F)Cn2c(-c3nc4cc(C(=O)N[C@H]5CNCC[C@@H]5F)c(F)cc4n3C)cc3ccc1nc32 [Example 552, 2-[(2~{R},5~{S},7~{S}, 9~{E})-11,11-difluoro-2,5-dimethyl-4-oxo-3,13,19-triazatetracyclo[11.5.2.0^ {5,7}.0^{16,20}]icosa-1(19),9,14,16(20), 17-pentaen-14-yl]-6-fluoro-~{N}-[(3~{S},4~ {S})-4-fluoro-3-piperidyl]-1-methyl-benzimidazole-5-carboxamide] | 61 nM

The next molecules have a lower IC50 than those just listed; values first:

Row | IC50 | Compound
4 | 17 nM | C[C@H]1NC(=O)c2ccc(Cl)nc2CCCCCn2c(-c3nc4cc(C(=O)N5C[C@H](N)C[C@@H](F)C5)cc(F)c4n3C3CC3)cc3ccc1nc32 [Example 791, (2~{R})-17-[5-[(3~{R},5~{R})-3-amino-5-fluoro-piperidine-1-carbonyl]-1-cyclopropyl-7-fluoro-benzimidazol-2-yl]-8-chloro-2-methyl-3,9,16,22-tetrazatetracyclo[14.5.2.0^ {5,10}.0^{19,23}]tricosa-1(21),5(10),6,8,17,19,22-heptaen-4-one]
5 | 20 nM | COc1cc(C(=O)N2[C@H]3CC[C@@H]2[C@H](N)C3)cc2nc(-c3cc4ccc5nc4n3CCCCC[C@H](OC)CC(=O)N[C@@H]5C)c(C)n12 [Example 332, (7~{S},11~{R})-17-[7-[(1~{R},2~{R},4~{S})-2-amino-7-azabicyclo[2.2.1]heptane-7-carbonyl]-5-methoxy-3-methyl-imidazo[1,2-a]pyridin-2-yl]-7-methoxy-11-methyl-1,10,19-triazatricyclo[10.5.2.0^{15,18}]nonadeca-12(19),13,15(18),16-tetraen-9-one]
6 | 25 nM | C[C@@H]1[C@H](N)CCCN1C(=O)c1cc(F)c2c(c1)nc(-c1cc3ccc4nc3n1CCCCCc1ncc3ccccc3c1C(=O)N[C@@H]4C)n2C1CC1 [Example 748, (2~{R})-21-[5-[(2~{R},3~ {R})-3-amino-2-methyl-piperidine-1-carbonyl]-1-cyclopropyl-7-fluoro-benzimidazol-2-yl]-2-methyl-3,13,20,26-tetrazapentacyclo[18.5.2.0^ {5,14}.0^{6,11}.0^{23,27}] heptacosa-1(26),5(14),6(11), 7,9,12,21,23(27),24-nonaen-4-one]
7 | 51 nM | C[C@H]1NC(=O)c2ccccc2CCCCCn2c(-c3nc4cc(C(=O)N[C@H]5CNCC[C@@H]5F)c(F)cc4n3C3CC3)cc3ccc1nc32 [Example 347, 1-cyclopropyl-6-fluoro-~{N}-[(3~{S},4~{S})-4-fluoro-3-piperidyl]-2-[(2~{R})-2-methyl-4-oxo-3,16,22-triazatetracyclo[14.5.2.0^{5,10}.0^{19,23}]tricosa-1(22),5,7,9,17,19(23),20-heptaen-17-yl]benzimidazole-5-carboxamide]
